Results on one molecule are retold here after ChEMBL document CHEMBL1144870 (J Med Chem, 2003).

This experiment deals with T1, Hypoxanthine-guanine phosphoribosyltransferase (Homo sapiens, UniProt P00492).
T1 sequence (P00492 whole entry): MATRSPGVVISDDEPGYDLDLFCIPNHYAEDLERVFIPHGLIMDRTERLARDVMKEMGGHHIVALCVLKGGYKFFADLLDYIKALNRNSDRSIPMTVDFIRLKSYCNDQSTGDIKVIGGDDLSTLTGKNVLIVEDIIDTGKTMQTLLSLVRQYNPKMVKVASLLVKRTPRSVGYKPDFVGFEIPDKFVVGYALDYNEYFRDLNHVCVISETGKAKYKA
As to the kind of experiment: Kinetic inhibition constant of compound with human Hypoxanthine Phosphoribosyltransferase (HPRT).

The molecule `O=C(Nc1cc2c3ccccc3ccc2c2ccccc12)C(Cl)Cl` gave a Ki of 16 µM.
